Source: patent publication US20220323406A1, “METHODS AND COMPOSITIONS FOR DIFFERENTIATING STEM CELLS” (Massachusetts Institute of Technology, priority 2019, published 2022)

Assays:
[1] = tested on: ENR+CD organoids (ISC to Paneth cell differentiation); assay: Secondary (validation) screen: LYZ.NS basal lysozyme secretion, 2.5-D 384-well ENR+CD organoids; format: cell-based, mouse; conditions: for Dose.FC.LYZ.NS / Z.LYZ.NS / repSSMD.LYZ.NS: 6-day ENR+CD, vs ENR+CD+DMSO
Method: (§1) Drugs were tested at a narrowed dose range around each treatment's identified optimal dose from the primary screen (4× below, 2× above and below).
(§2) High-throughput screening.
(§3) Secondary lysozyme secretion assay screen. Confirmatory secondary screening with primary hits was performed using the above 384-well plate method. The screen was conducted with 4-plate replicates with a base media of ENR+CD. Media was supplemented with compound at day 0 and day 3 (n=8 well replicates per dose) at four different doses: two-fold above, two-fold below, and four-fold below the optimal final dose for each respective treatment. Additionally, each plate carried a large number of ENR+DMSO or ENR+CD+DMSO (vehicle) control wells (n=100 for ATP, and n=25 for LYZ.NS and LYZ.S) for robust normalization. ATP, non-stimulated lysozyme activity and CCh-stimulated lysozyme activity was again measured and the collected data was again processed in a custom R-script, per primary screen with slight modification. Values were log10 transformed, and a plate-wise FC was calculated for each well based on the median value of ENR+CD+DMSO (vehicle) control wells to normalize plate to plate variability.

[2] = tested on: ENR+CD organoids (ISC to Paneth cell differentiation); assay: Primary screen: CCh-stimulated lysozyme secretion LYZ.S, 2.5-D 384-well ENR+CD organoid differentiation; format: cell-based, mouse; conditions: primary screen, FC vs plate median
Excerpt: as §2

[3] = tested on: ENR+CD organoids (ISC to Paneth cell differentiation); assay: Secondary (validation) screen: LYZ.S CCh-stimulated lysozyme secretion, 2.5-D 384-well ENR+CD organoids; format: cell-based, mouse; conditions: 6-day ENR+CD, vs ENR+CD+DMSO
Method: as §1, §2, §3

[4] = tested on: ENR+CD organoids (ISC to Paneth cell differentiation); assay: Primary screen: basal (non-stimulated) lysozyme secretion LYZ.NS, 2.5-D 384-well ENR+CD organoid differentiation; format: cell-based, mouse; conditions: primary screen; for Z.LYZ.NS: standard z score; for Dose.FC.LYZ.NS: FC vs plate median
Excerpt: as §2

[5] = tested on: ENR+CD organoids; assay: Primary screen: ATP (CellTiter-Glo 3D, CTG) cell number/viability, 2.5-D 384-well ENR+CD organoids; conditions: primary screen; for Dose.FC.CTG: FC vs plate median; for Z.CTG: standard z score;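 on all read-outs here: compounds given at plating and again on day 3 over a 6-day differentiation from ENR+CV stem-cell-enriched precursors, ATP measured on day 6, plate median as control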
[6] = tested on: ENR+CD organoids; assay: Secondary (validation) screen: ATP (CTG) assay, 2.5-D 384-well ENR+CD organoids; format: cell-based, mouse; conditions: 6-day ENR+CD, vs ENR+CD+DMSO
Method: as §1, §2, §3

Q: What does the source list for `Cc1cn(-c2cc(NC(=O)c3ccc(C)c(Nc4nccc(-c5cccnc5)n4)c3)cc(C(F)(F)F)c2)cn1` [Nilotinib (AMN-107), Nilotinib, reference compound]?
A: Dose.FC.LYZ.NS ([1]; 0.10 uM): 0.092 log2 fold change; Dose.FC.LYZ.NS ([1]; 0.20 uM): 0.161 log2 fold change; Dose.FC.LYZ.NS ([1]; 0.40 uM): 0.101 log2 fold change; Dose.FC.LYZ.NS ([1]; 0.80 uM): 0.165 log2 fold change; validated doses in secondary screen (SSMD above cutoff in both LYZ assays) ([1]; LYZ.NS and LYZ.S): multiple validated doses; biological potency compared with Bosutinib ([1]; LYZ.NS and LYZ.S mean fold change): more biologically potent; Dose.FC.LYZ.S ([2]; dose 0.08 uM): 0.235 log2 fold change; Dose.FC.LYZ.S ([2]; dose 0.40 uM): 0.293 log2 fold change; Dose.FC.LYZ.S ([2]; dose 2.00 uM): 0.033 log2 fold change; Dose.FC.LYZ.S ([2]; dose 10.00 uM): −0.197 log2 fold change; Dose.FC.LYZ.S ([3]; 0.10 uM): 0.044 log2 fold change; Dose.FC.LYZ.S ([3]; 0.20 uM): 0.117 log2 fold change; Dose.FC.LYZ.S ([3]; 0.40 uM): −0.007 log2 fold change; Dose.FC.LYZ.S ([3]; 0.80 uM): 0.143 log2 fold change; Z.LYZ.NS ([4]; dose 0.08 uM): 1.703; Z.LYZ.NS ([4]; dose 0.40 uM): 1.412; Z.LYZ.NS ([4]; dose 2.00 uM): 0.742; Z.LYZ.NS ([4]; dose 10.00 uM): −0.806; Dose.FC.LYZ.NS ([4]; dose 0.08 uM): 0.196 log2 fold change; Dose.FC.LYZ.NS ([4]; dose 0.40 uM): 0.162 log2 fold change; Dose.FC.LYZ.NS ([4]; dose 2.00 uM): 0.085 log2 fold change; Dose.FC.LYZ.NS ([4]; dose 10.00 uM): −0.093 log2 fold change; Dose.FC.CTG ([5]; dose 0.08 uM): 0.322 log2 fold change; Dose.FC.CTG ([5]; dose 0.40 uM): 0.348 log2 fold change; Dose.FC.CTG ([5]; dose 2.00 uM): 0.242 log2 fold change; Dose.FC.CTG ([5]; dose 10.00 uM): −0.012 log2 fold change; Dose.FC.CTG ([6]; 0.10 uM): 0.092 log2 fold change; Dose.FC.CTG ([6]; 0.20 uM): 0.122 log2 fold change; Dose.FC.CTG ([6]; 0.40 uM): 0.141 log2 fold change; Dose.FC.CTG ([6]; 0.80 uM): 0.233 log2 fold change

Q: For `CCc1cncnc1N1CCN(Cc2nc3ccc(C(F)(F)F)cc3[nH]2)CC1` [PF-4708671], which Dose.FC.LYZ.NS ([1]; 0.50 uM) is on record?
A: 0.005 log2 fold change

Q: And the Z.LYZ.NS ([1]; 0.50 uM)?
A: 0.039

Q: And the repSSMD.LYZ.NS ([1]; 0.50 uM)?
A: 0.058

Q: What about the Dose.FC.LYZ.NS ([1]; 1.00 uM) of the same compound?
A: −0.200 log2 fold change

Q: What about the Z.LYZ.NS ([1]; 1.00 uM) of the same compound?
A: −1.600

Q: What about the repSSMD.LYZ.NS ([1]; 1.00 uM) of the same compound?
A: −1.909

Q: And the Dose.FC.LYZ.NS ([1]; 2.00 uM)?
A: −0.221 log2 fold change

Q: And the Z.LYZ.NS ([1]; 2.00 uM)?
A: −1.764

Q: What about the repSSMD.LYZ.NS ([1]; 2.00 uM) of the same compound?
A: −2.529

Q: What about the Dose.FC.LYZ.NS ([1]; 4.00 uM) of the same compound?
A: 0.015 log2 fold change

Q: What about the Z.LYZ.NS ([1]; 4.00 uM) of the same compound?
A: 0.120

Q: What about the repSSMD.LYZ.NS ([1]; 4.00 uM) of the same compound?
A: 0.171

Q: And the Dose.FC.LYZ.S ([2]; dose 0.08 uM)?
A: 0.136 log2 fold change

Q: And the Dose.FC.LYZ.S ([2]; dose 0.40 uM)?
A: 0.172 log2 fold change

Q: What about the Dose.FC.LYZ.S ([2]; dose 2.00 uM) of the same compound?
A: 0.209 log2 fold change

Q: And the Dose.FC.LYZ.S ([2]; dose 10.00 uM)?
A: −0.024 log2 fold change

Q: What about the Dose.FC.LYZ.S ([3]; 0.50 uM) of the same compound?
A: −0.040 log2 fold change

Q: And the Z.LYZ.S ([3]; 0.50 uM)?
A: −0.305

Q: What about the repSSMD.LYZ.S ([3]; 0.50 uM) of the same compound?
A: −0.496

Q: What about the Dose.FC.LYZ.S ([3]; 1.00 uM) of the same compound?
A: −0.245 log2 fold change

Q: And the Z.LYZ.S ([3]; 1.00 uM)?
A: −1.879

Q: What about the repSSMD.LYZ.S ([3]; 1.00 uM) of the same compound?
A: −2.451

Q: What about the Dose.FC.LYZ.S ([3]; 2.00 uM) of the same compound?
A: −0.272 log2 fold change

Q: And the Z.LYZ.S ([3]; 2.00 uM)?
A: −2.088

Q: What about the repSSMD.LYZ.S ([3]; 2.00 uM) of the same compound?
A: −3.604

Q: What about the Dose.FC.LYZ.S ([3]; 4.00 uM) of the same compound?
A: −0.042 log2 fold change

Q: What about the Z.LYZ.S ([3]; 4.00 uM) of the same compound?
A: −0.320

Q: What about the repSSMD.LYZ.S ([3]; 4.00 uM) of the same compound?
A: −0.503

Q: What about the Z.LYZ.NS ([4]; dose 0.08 uM) of the same compound?
A: 0.654

Q: And the Z.LYZ.NS ([4]; dose 0.40 uM)?
A: 1.059

Q: What about the Z.LYZ.NS ([4]; dose 2.00 uM) of the same compound?
A: 1.721

Q: What about the Z.LYZ.NS ([4]; dose 10.00 uM) of the same compound?
A: 0.297

Q: And the Dose.FC.LYZ.NS ([4]; dose 0.08 uM)?
A: 0.075 log2 fold change

Q: And the Dose.FC.LYZ.NS ([4]; dose 0.40 uM)?
A: 0.122 log2 fold change

Q: And the Dose.FC.LYZ.NS ([4]; dose 2.00 uM)?
A: 0.198 log2 fold change

Q: What about the Dose.FC.LYZ.NS ([4]; dose 10.00 uM) of the same compound?
A: 0.034 log2 fold change

Q: What about the Z.CTG ([5]; dose 0.08 uM) of the same compound?
A: 0.623

Q: And the Z.CTG ([5]; dose 0.40 uM)?
A: 0.640

Q: And the Z.CTG ([5]; dose 2.00 uM)?
A: 0.721

Q: What about the Z.CTG ([5]; dose 10.00 uM) of the same compound?
A: −0.766

Q: And the Dose.FC.CTG ([5]; dose 0.08 uM)?
A: 0.261 log2 fold change

Q: And the Dose.FC.CTG ([5]; dose 0.40 uM)?
A: 0.268 log2 fold change

Q: And the Dose.FC.CTG ([5]; dose 2.00 uM)?
A: 0.302 log2 fold change

Q: What about the Dose.FC.CTG ([5]; dose 10.00 uM) of the same compound?
A: −0.321 log2 fold change

Q: And the Dose.FC.CTG ([6]; 0.50 uM)?
A: −0.049 log2 fold change

Q: What about the Z.CTG ([6]; 0.50 uM) of the same compound?
A: −0.443

Q: What about the repSSMD.CTG ([6]; 0.50 uM) of the same compound?
A: −0.324

Q: What about the Dose.FC.CTG ([6]; 1.00 uM) of the same compound?
A: −0.039 log2 fold change

Q: What about the Z.CTG ([6]; 1.00 uM) of the same compound?
A: −0.354

Q: And the repSSMD.CTG ([6]; 1.00 uM)?
A: −0.284

Q: And the Dose.FC.CTG ([6]; 2.00 uM)?
A: −0.076 log2 fold change

Q: What about the Z.CTG ([6]; 2.00 uM) of the same compound?
A: −0.684

Q: What about the repSSMD.CTG ([6]; 2.00 uM) of the same compound?
A: −0.558

Q: And the Dose.FC.CTG ([6]; 4.00 uM)?
A: 0.067 log2 fold change

Q: And the Z.CTG ([6]; 4.00 uM)?
A: 0.601

Q: And the repSSMD.CTG ([6]; 4.00 uM)?
A: 0.414
